From patent US20090028925A1, “Novel Phosphinic Acid-Containing Thyromimetics” (priority 2005, published 2009)

Columns and labels:
[1] = effects on cholesterol and TSH at the same or not pharmacologically different doses; cited from earlier work
[2] = rodent models and monkeys; cited from earlier work
[3] = in the monkey; cited from earlier work
[4] = system: CYP3A (cytochrome P450-3A (CYP3A4)); assay: Prodrug activation in rat liver microsomes; assay type: in vitro ADME; settings: liver microsomes from dexamethasone-treated rats; dexamethasone treated rat microsomes, formation of Compound 7
From the text: (§1) The purpose of these studies was to determine the kinetics of activation of prodrugs of thyromimetics in microsomal preparations. Microsomes contain the P450 enzyme that is required for the activation of many of the prodrugs prepared. The Km, Vmax, and intrinsic clearance values determined are measures of prodrug affinity for the microsomal enzymes, the rate at which the prodrug is activated, and the catalytic efficiency with which the prodrug is activated, respectively.
(§2) Methods: Activation of prodrugs by dexamethasone treated rat hepatocyte microsomes. Microsomes were isolated by standard differential centrifugation methods from dexamethasone-treated rats. The treatment is to increase cytochrome P450-3A (CYP3A4) activity. Induction of CYP3A4 was confirmed by an increase in testosterone hydroxylation.
(§3) Various concentrations of HepDirect™ Compound 7 were incubated with rat hepatocytes microsomes. Compound 7 formation was analyzed by HPLC using UV-Vis detection. Kinetic parameters (Vmax and Km) were calculated from the transformed data and the intrinsic clearance calculated from the kinetic parameters.

[5] = Prodrug activation in rat liver microsomes; assay type: in vitro ADME
From the text: as §1, §2, §3

[6] = molecular target: T1, human thyroid hormone receptors TRα1 (Homo sapiens, UniProt P10827); assay: Receptor binding to TRα1 (gel filtration and scintillation proximity assay, labeled T3); settings: SPA data; read-out: Ki TRα
T1 construct: made in house; host or cells: Sf9 insect cells (baculovirus)
T1 sequence (P10827 1-410 isoform P10827-2): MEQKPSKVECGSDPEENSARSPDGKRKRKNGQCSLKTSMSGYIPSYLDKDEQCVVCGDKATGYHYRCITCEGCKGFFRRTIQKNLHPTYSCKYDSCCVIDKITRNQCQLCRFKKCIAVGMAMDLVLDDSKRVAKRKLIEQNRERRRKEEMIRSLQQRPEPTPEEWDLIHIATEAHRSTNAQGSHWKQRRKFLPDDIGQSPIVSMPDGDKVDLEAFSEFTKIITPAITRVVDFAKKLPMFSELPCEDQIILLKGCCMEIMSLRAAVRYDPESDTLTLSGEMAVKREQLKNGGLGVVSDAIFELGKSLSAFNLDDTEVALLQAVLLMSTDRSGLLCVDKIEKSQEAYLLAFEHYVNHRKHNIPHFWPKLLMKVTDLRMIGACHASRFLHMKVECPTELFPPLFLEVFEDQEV
T1 sequence (P19793 1-462 partner): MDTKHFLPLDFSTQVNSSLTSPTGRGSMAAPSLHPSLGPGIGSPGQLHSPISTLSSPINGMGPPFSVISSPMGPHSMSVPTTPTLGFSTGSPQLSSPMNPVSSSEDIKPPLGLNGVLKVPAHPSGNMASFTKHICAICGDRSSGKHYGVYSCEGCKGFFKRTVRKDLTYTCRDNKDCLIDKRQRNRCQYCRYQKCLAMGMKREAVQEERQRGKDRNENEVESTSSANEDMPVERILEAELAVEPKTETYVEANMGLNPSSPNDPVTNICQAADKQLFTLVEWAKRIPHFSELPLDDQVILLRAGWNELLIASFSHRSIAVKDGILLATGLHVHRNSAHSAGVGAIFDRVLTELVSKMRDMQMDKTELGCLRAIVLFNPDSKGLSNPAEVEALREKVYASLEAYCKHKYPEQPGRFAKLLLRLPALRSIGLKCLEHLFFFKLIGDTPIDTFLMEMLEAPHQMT

[7] = system: serum cholesterol; assay: Subacute study in cholesterol fed rats, PO: serum cholesterol; assay type: in vivo; settings: PO once a day for seven days
Experimental: (§4) Methods: […] Compound 13-1-cis and Compound 18 were administered PO once a day for seven days. Serum TSH is measured using an enzyme immunoassay (EIA) kit designed for rat TSH (Amersham Pharmacia Biotech, Arlington Heights, Ill.). Expression levels of liver genes (e.g., the LDL-receptor, apoB, cpt-1, spot14 and apoAI) and heart genes ([…]2, HCN2, Kv1.5, MHCα, MHCβ, Alpha1c) are quantified by Northern blot analysis or by RT-PCR. For Northern analyses, RNA is isolated from liver tissue by a guanidinium thiocyanate method, and total RNA is obtained using an RNeasy column (Quiagen). mRNA is separated on a 1% agarose gel and transferred to a nylon membrane. Oligonucleotides specific for the complementary gene sequences are used to make ^32P-labeled probes (Multiprime DNA labeling systems, Amersham Pharmacia Biotech). Following hybridization of the probes to the nylon membranes, radioactivity is assessed on a blue film (Eastman Kodak Co), and the resulting image quantified using the appropriate software. RT-PCR is performed using an iCycler instrument (Biorad) using appropriate primers by means of standard methodology [[…] et al. (2000) Life Sciences 66: 1683-94]. GPDH activity in liver and heart are measured as described in Example B. […] Alternatively, expression levels of the corresponding genes are determined by Northern blot analysis or RT-PCR as described above.

[8] = Subacute study in cholesterol fed rats, PO: heart weight; assay type: in vivo; settings: PO seven days, any dose tested
Experimental: as §4

[9] = molecular target: T2, human thyroid hormone receptors TRβ1 (Homo sapiens, UniProt P10828); assay: Receptor binding to TRβ1 (gel filtration and scintillation proximity assay, labeled T3); settings: SPA data; read-out: Ki TRβ
T2 construct: made in house; host or cells: Sf9 insect cells (baculovirus)
T2 sequence (P10828 1-461): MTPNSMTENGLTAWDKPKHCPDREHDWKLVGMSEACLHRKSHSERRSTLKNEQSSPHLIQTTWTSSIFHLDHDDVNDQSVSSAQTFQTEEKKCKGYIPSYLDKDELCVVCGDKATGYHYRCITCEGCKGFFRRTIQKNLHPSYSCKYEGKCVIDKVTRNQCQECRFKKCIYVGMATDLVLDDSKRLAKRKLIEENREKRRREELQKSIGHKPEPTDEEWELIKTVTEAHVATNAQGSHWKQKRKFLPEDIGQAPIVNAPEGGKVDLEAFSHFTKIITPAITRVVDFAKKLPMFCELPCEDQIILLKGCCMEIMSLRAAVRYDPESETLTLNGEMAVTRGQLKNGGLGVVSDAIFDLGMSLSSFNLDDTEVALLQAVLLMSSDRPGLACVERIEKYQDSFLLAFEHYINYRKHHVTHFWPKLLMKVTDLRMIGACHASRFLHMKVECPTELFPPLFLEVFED
T2 sequence (P19793 1-462 partner): T1 sequence (P19793 1-462 partner)

[10] = system: plasma cholesterol; assay: Cholesterol lowering in hypercholesterolemic rats; assay type: in vivo; settings: hypercholesterolemic rats, 0.5 mg/kg/d orally
[11] = system: thyroid stimulating hormone (TSH); assay: Circulating TSH in rats (cholesterol-fed, ZDF); assay type: in vivo
Experimental: Methods: mGPDH activity was analyzed in isolated mitochondria using 2-(4-iodophenyl)-3-(4-nitrophenyl)-5-phenyl tetrazolium chloride as the terminal electron acceptor (Gardner R S, Analytical Biochemistry 59:272 (1974)). Commercially available GPDH was used in each assay as a standard (Sigma, St. Louis, Mo.). Changes in levels of mRNA for liver and heart genes are analyzed using reverse transcriptase followed by real-time PCR analysis. The analysis is performed using an iCycler instrument (Biorad) and appropriate primers by means of standard methodology [e.g., Schwab D A et al. (2000) Life Sciences 66: 1683-94]. The amounts of mRNA are normalized to an internal control, typically, cyclophilin. Serum TSH is measured using an enzyme immunoassay (EIA) kit designed for rat TSH (Amersham Pharmacia Biotech, Arlington Heights, Ill.).
Another concern with synthetic thyromimetics is the suppression of the endogenous thyroid axis. Thyroid homeostasis is maintained by the action of thyroid releasing hormone (TRH) and thyroid stimulating hormone (TSH). […] Although this particular side effect has been noted, it has typically been treated with less concern than the cardiac safety issues. […] Therefore previous investigators have measured TSH levels when testing synthetic thyromimetics and have used a 30% decrease of TSH as the denominator in their therapeutic index calculations. […] Therefore, both compounds suppress TSH as doses lower than that required to decrease circulating cholesterol. […] However, 0.2 mg/kg/d of Compound 18 in 28 day treated ZDF rats, decreased TSH levels greater than 90%.

[12] = cholesterol-fed rat; cited from earlier work
[13] = ZDF, rat, in vivo, po, 28 days
Experimental: Compound 18 was administered at doses up to 5 mg/kg/d. Compound cis-13-1 was administered at doses up to 50 mg/kg/d. We reasoned that the ZDF rat, as a metabolically challenged animal model, would be more sensitive to the potential adverse cardiac effects of thyromimetics than a normal, cholesterol-fed rat. At sacrifice, heart rate, and the first derivative of left ventricular pressure (LV dP/dt) were measured with a Millar catheter inserted into the left ventricle.

[14] = Cardiovascular activity in the Sprague Dawley rat (HR, LV dP/dt, aortic pressure, heart weight); assay type: in vivo; settings: SD rats, 1 mg/kg p.o., 7 days
From the text: Method: […] The control group (n=6) was given vehicle only. […] On the 7th day after the start of dosing, animals were anesthetized with Isofluorane and the left ventricle cannulated with a high fidelity catheter tip transducer via the right carotid artery. Left ventricular pressure, its first derivative (LVdP/dt), lead I ECG, and heart rate (HR) triggered off the ECG waveform, were digitally recorded. LV dP/dt is a well accepted measure of ionotropic state. Systolic and diastolic aortic pressures were measured by retracting the catheter into the proximal aorta.

| Compound | TSH levels [1] | cholesterol levels [1] | weight loss in animals [2] | Lp(a) levels [3] | Km [4] | Vmax ([5]; dexamethasone treated rat microsomes, formation of Compound 7) | microsomal CLint ([5]; rat, liver microsomes from dexamethasone-treated rats, intrinsic clearance calculated from the kinetic parameters) | Ki [6] | doses that significantly decreased serum cholesterol [7] | cardiac hypertrophy [8] | Ki [9] | cholesterol lowering [10] | decrease of TSH levels ([11]; ZDF rats, 0.2 mg/kg/d, 28 day) | therapeutic index of TSH levels (30% decrease of TSH) ([11]; cholesterol-fed rats, treated for 7 days) | therapeutic index (TI) with respect to heart rate increases (ED15 HR/ED50 cholesterol) [12] | TI for LV dP/dt (increase of 25%) [13] | therapeutic index with respect to heart rate (ED15 HR/ED50 cholesterol) [13] | HR, LV dP/dt, and systolic aortic pressure [14] | Heart weight and heart weight normalized to body weight [14] |
| --- | --- | --- | --- | --- | --- | --- | --- | --- | --- | --- | --- | --- | --- | --- | --- | --- | --- | --- | --- |
| CC(C)c1cc(Oc2c(Cl)cc(CC(=O)O)cc2Cl)ccc1O [3,5-dichloro-4-[4-hydroxy-3-(1-methylethyl)phenoxy]benzeneacetic acid] | dose-dependently lower | dose-dependently lower | weight loss | decrease Lp(a) levels |  |  |  |  |  |  |  |  |  |  |  |  |  |  |  |
| Cc1cc(OC[P@@]2(=O)OCC[C@@H](c3cccc(Cl)c3)O2)cc(C)c1Cc1ccc(O)c(C(C)C)c1 [Compound 13-1-cis, Cis(S)-2-[(3,5-Dimethyl-4-(4′-hydroxy-3′-iso-propylbenzyl)phenoxy)methyl]-4-(3-Chlorophenyl)-2-oxo-2λ^5-[1,3,2]-dioxaphosphinane] |  |  |  |  | 31 µM | 1746 pmol/min/mg | 56 µL/min/mg | 2.58 µM | 0.6 to 50 mg/kg/day | No significant undesirable cardiac hypertrophy was observed | 1.98 µM | demonstrated a significant lowering of cholesterol |  |  |  |  |  |  |  |
| CC(C)c1cc(Oc2c(Cl)cc(CC(=O)O)cc2Cl)ccc1O [Compound 18, 3,5-dichloro-4-[4′-hydroxy-3′-iso-propylphenoxy]benzeneacetic acid, reference compound] |  |  |  |  |  |  |  |  | 1 mg/kg/day |  |  |  | greater than 90% | 0.4 | 40 | 0.15 | 0.4 | marked and statistically significant increases | significantly increased |
